A short description of series [1]: Inhibition of human CYP1B1 expressed in MDA-MB-468 cells assessed as potentiation of cisplatin-induced cytotoxicity by measuring cisplatin EC50 at 6.6 uM (Rvb = 6.70+/- 0.7 uM).
The nature of series [2]: Inhibition of human CYP1A1 transfected in HEK293 cells assessed as protection against CYP1A1 mediated B[a]P toxicity by measuring B[a]P EC50 at 20 uM by MTT assay (Rvb =1.2+/- 0.3 uM). Background: Tetrazolium assays rely on reduction of a dye to a coloured formazan, in cell work by metabolically active cells.
A short description of series [3]: Inhibition of human CYP1B1 expressed in MDA-MB-468 cells assessed as potentiation of cisplatin-induced cytotoxicity by measuring cisplatin EC50 at 20 uM (Rvb = 6.70+/- 0.7 uM).

As for `O=c1c(O)c(-c2ccc(O)c(O)c2)oc2cc(O)cc(O)c12` [2-(3,4-dihydroxyphenyl)-3,5,7-trihydroxy-chromone;hydrate], the EC50 (commonly the concentration that produces a half-maximal response) in series [1] amounted to 1.1 µM; in series [2] it was 8.8 µM.

For `O=c1cc(-c2ccccc2)oc2c1ccc1ccccc12`, in series [3], the EC50 was 5.1 µM.

For `CC(C)=CCc1cc(C2CC(=O)c3ccc(O)c(CC=C(C)C)c3O2)ccc1O` (stereo not given), the EC50 amounted to 5.2 µM in series [3] and 2.3 µM in series [2].

Source of the values: BindingDB's records for doi:10.1016/j.bmcl.2017.11.013 (Csir-Indian Institute of Integrative Medicine, 2017).
